Source: patent US12187672B2, “1,2-diacylglycerol compound, preparation method therefor, and immunomodulator containing same as active ingredient” (ENZYCHEM LIFESCIENCES CORPORATION, priority 2018, dated 2025)

Experiments:
IL-4 = assay: PKC activator-induced IL-4 secretion reduction in EL-4 cells (ELISA); type: cell-based, mouse; conditions: for IL-4 concentration (average ± deviation): sample 100 μg/ml 2 h, then PKC activator 18 h; for decrease of IL-4 secretion/expression: PKC activator-treated, 100 μg/ml
Procedure, shortened: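 Mouse EL-4 lymphoma cells in DMEM/10% FBS pretreated 2 h with compound, then stimulated with 0.5 μg/ml PKC activator (PMA type) for 18 h at 37 °C. Secreted IL-4 in supernatant quantified by sandwich ELISA (OD 450 nm) and expressed as reduction rate.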

HL-60 cells = assay: Migration of HL-60 cell line toward THP-1 culture supernatant (transmigration assay); type: cell-based, human; conditions: supernatant of THP-1 cells treated with sample 100 μg/ml 1 h, then Gemcitabine 2 μg/ml 24 h
Procedure, shortened: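 THP-1 cells pretreated 1 h with compounds, then stimulated with gemcitabine (2 μg/ml) for 24 h; supernatant placed in lower chamber. HL-60 cells (5×10^4/chamber) migrated through laminin I-coated upper chamber; migrated cells quantified by Calcein-AM fluorescence converted to cell number.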

STAT6 = assay: IL-4-induced STAT6 activity, pGL4-STAT6 luciferase reporter in A549 cells; type: cell-based; conditions: sample 100 μg/ml 1 h
Procedure, shortened: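 A549 cells transiently transfected with pGL4-STAT6 reporter (24 h), pretreated with compound 1 h, then stimulated with IL-4 (2 ng/ml or 10 ng/ml) for 20 h. Cells lysed and luciferase luminescence read as STAT6 activity.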

STAT3 = STAT3 activity, pGL4.47 SIE luciferase reporter in LPS-treated RAW264.7 cells; type: cell-based, mouse; conditions: sample 100 μg/ml 1 h, then LPS 1 μg/ml 18 h
Experimental: pGL4.47 [luc2P/SIE/Hygro] vector containing the sis-Inducible Element that binds to STAT3 was injected into RAW264.7 cells to confirm the degree of STAT3 activity. In DMEM (Hyclone, Thermo Scientific) medium to which 10% Fetal Bovine Serum was added, RAW264.7 cells were cultured at a concentration of 1×10^5 cells/ml, and maintained in a 5% CO2 humidified incubator at 37° C. The cultured RAW264.7 cells were inoculated into a 48 well plate by 1×10^5 cells/ml and stabilized for 18 hours. Thereafter, the pGL4.47 [luc2P/SIE/Hygro] vector containing sis-Inducible Element was mixed with Attractene to induce complex formation at room temperature for 15 minutes. This complex was treated with the cells and then further incubated for 18 hours. Thereafter, the culture solution was treated with a glycerol derivative compounds of the type shown in Table 5 below for 1 hour and then LPS (1 μg/ml) was treated and further incubated for 18 hours for STAT3 activity. Thereafter, the culture supernatant was removed for each well, and the remaining cells were lysed with a cell lysis buffer, and then cell lysate was recovered. 90 μl of luciferase reagent was mixed with 10 μl of the recovered cell lysate, and the degree of fluorescence was confirmed using a luminometer.

[1] = then IL-4 (10 ng/ml) 20 h, Table 10
[2] = then IL-4 (2 ng/ml) 20 h, Table 9

SMILES | IL-4 concentration (average ± deviation) (IL-4; Table 12) [pg/µL] | Number of HL-60 cells migrated through Transwell (HL-60 cells) [Cell Number] | STAT6 activity_Luciferase activity (average ± deviation) (STAT6; [1]) | STAT3 activity_Luciferase activity (average ± deviation) (STAT3) | decrease of IL-4 secretion/expression (IL-4) | IL-4 concentration (average ± deviation) (IL-4; Table 11) [pg/µL] | STAT6 activity_Luciferase activity (average ± deviation) (STAT6; [2])
CCCCC/C=C\C/C=C\CCCCCCCC(=O)OC(COC(=O)CCCCCCCCC)COC(=O)C(C)C (stereo not drawn) [EC_A100] | 539.7 ± 6.4 | 8947.2 | 14212.0 ± 1008.8 | 572.2 ± 60.4 |  |  | 
CCCCC/C=C\C/C=C\CCCCCCCC(=O)OC(COC(=O)CCCCCCC)COC(=O)C(C)C (stereo not drawn) [EC_A88] | 654.7 ± 0.6 | 17552.5 | 17409.5 ± 1849.8 | 1171.5 ± 146.3 |  |  | 
CCCCC/C=C\C/C=C\CCCCCCCC(=O)OC(COC(=O)CC)COC(=O)CCCCCCCCC (stereo not drawn) [EC_A97] | 541.5 ± 20.5 | 7440.6 | 16787.0 ± 4102.6 | 573.2 ± 146.7 |  |  | 
CCCCC/C=C\C/C=C\CCCCCCCC(=O)OC(COC(=O)CCC)COC(=O)CCCCCCCCC (stereo not drawn) [EC_A98] | 584.2 ± 50.1 | 11056.8 | 14727.2 ± 129.2 | 370.7 ± 35.0 |  |  | 
CCCCC/C=C\C/C=C\CCCCCCCC(=O)OC(COC(=O)CCCC)COC(=O)CCCCCCCCCCC (stereo not drawn) [EC_A93] | 507.9 ± 3.85 | 6828.6 | 15562.5 ± 900.7 | 536.2 ± 222.3 | about 20% |  | 
CCCCC/C=C\C/C=C\CCCCCCCC(=O)OC(COC(=O)CCCCCCCCC)COC(=O)C(C)(C)C (stereo not drawn) [EC_A101] | 634.7 ± 3.21 | 4848.9 | 19438.7 ± 580.2 | 581.7 ± 8.1 |  |  | 
CCCCC/C=C\C/C=C\CCCCCCCC(=O)OC(COC(=O)CC)COC(=O)CCCCCCCCCCCCCCC (stereo not drawn) [EC_A78] | 557 ± 11.5 | 23396.6 | 19208.7 ± 2129.6 | 912.5 ± 214.2 |  |  | 
CCCCC/C=C\C/C=C\CCCCCCCC(=O)OC(COC(=O)CCCCCCCCC)COC(=O)C(C)CC (stereo not drawn) [EC_A102] | 775.1 ± 11.5 | 8091.5 | 18719.2 ± 2558.5 | 602 ± 11.3 |  |  | 
CCCCCC=CCC=CCCCCCCCC(=O)OC(COC(=O)CCCCCCC)COC(=O)C(C)(C)C (stereo not drawn) [EC_A89] | 620.1 ± 22.4 | 6969.9 | 18635.5 ± 846.4 | 1087.7 ± 257.7 |  |  | 
CCCCC/C=C\C/C=C\CCCCCCCC(=O)OC(COC(=O)CCCC)COC(=O)CCCCCCC (stereo not drawn) [EC_A86] | 476.0 ± 2.5 | 18542.0 | 18158.0 ± 3182.4 | 866.2 ± 15.2 | about 20% |  | 
CCCCC/C=C\C/C=C\CCCCCCCC(=O)OC(COC(=O)CCC)COC(=O)CCCCCCCCCCC (stereo not drawn) [EC_A92] | 498.3 ± 45.6 | 2891.6 | 17237.2 ± 317.7 | 820 ± 448.3 | about 20% |  | 
CCCCC/C=C\C/C=C\CCCCCCCC(=O)OC(COC(=O)CC)COC(=O)CCCCCCC (stereo not drawn) [EC_A87] | 511.0 ± 0.6 | 7198.0 | 17258.7 ± 3007.1 | 1312 ± 34.6 | about 20% |  | 
CCCCC/C=C\C/C=C\CCCCCCCC(=O)OC(COC(=O)CCCC)COC(=O)CCCCCCCCC (stereo not drawn) [EC_A99] | 553.3 ± 39.8 | 7164.9 | 17407.0 ± 1347.6 | 353.2 ± 83.0 |  |  | 
CCCCC/C=C\C/C=C\CCCCCCCC(=O)OC(COC(C)=O)COC(=O)CCCCCCCCCCCCCCC (stereo not drawn) [EC-18, 1-palmitoyl-2-linoleoyl-3-acetylglycerol, reference compound] | 429.2 ± 7.0 | 2697.2 | 18878.0 ± 500.8 | 491.5 ± 41.7 |  | 662.4 ± 42.4 | 462.5 ± 161.7
CCCCC/C=C\C/C=C\CCCCCCCC(=O)OC(COC(=O)CCCCCC)COC(=O)CCCCCCCCCCCCCCC (stereo not drawn) [EC_A83] | 637.9 ± 14.1 | 7316.6 | 18788.2 ± 2805.4 | 510.2 ± 27.2 |  |  | 
CCCCC/C=C\C/C=C\CCCCCCCC(=O)OC(COC(=O)CC)COC(=O)CCCCCCCCCCC (stereo not drawn) [EC_A91] | 446.0 ± 16.7 | 9429.8 | 22036.0 ± 4089.4 | 746.5 ± 26.1 | about 20% |  | 
CCCCC/C=C\C/C=C\CCCCCCCC(=O)OC(COC(=O)CCCCCCCCCCC)COC(=O)C(C)CC (stereo not drawn) [EC_A96] | 582.9 ± 17.3 | 15110.8 | 14593.2 ± 2168.7 | 1136.7 ± 63.9 |  |  | 
CCCCC/C=C\C/C=C\CCCCCCCC(=O)OC(COC(=O)CCCCCCCCCCCCCCC)COC(=O)C1CC1 (stereo not drawn) [EC_A79] | 527 ± 17.9 | 12527.5 | 20037.7 ± 786.0 | 1183.5 ± 51.6 |  |  | 
CCCCC/C=C\C/C=C\CCCCCCCC(=O)OC(COC(=O)CCC)COC(=O)CCCCCCC (stereo not drawn) [EC_A85] | 485.1 ± 19.2 | 7687.7 | 19878.2 ± 4338.5 | 1126.7 ± 32.1 | about 20% |  | 
CCCCC/C=C\C/C=C\CCCCCCCC(=O)OC(COC(=O)CCCCCCCCCCCCCCC)COC(C)C (stereo not drawn) [EC_A21] |  | 1986.3 |  |  |  | 488.8 ± 46.2 | 880.0 ± 50.0
